Tested on: R32tet32 antigen
Test: immunogenicity in mice: anti-R32tet32 (anti-repeat) antibody titer by ELISA
Format: in vivo, Balb/C mice
Details: effect of 3D-MPL (50 µg/dose) added to (RTS,S) on A1(OH)3

3 Deacylated monophosphoryl lipid A [3D-MPL]
primary antibody response in mice: enhanced

Reference: EP0614465B1, “HYBRID PROTEIN BETWEEN CS FROM […] HBsAG” (SMITHKLINE BEECHAM BIOLOGICALS S.A., priority 1991, dated 1993)
